How the values were obtained:
[1] = test system: VEGF induced increases in intracellular calcium levels in HUVEC (human umbilical vein endothelial cells); experiment: VEGF Stimulated Ca++ Signal In vitro (FLIPR); assay type: cell-based; conditions: VEGF stimulation 5 ng/mL, 30 min pre-incubation
Method: Automated FLIPR (Fluorometric Imaging Plate Reader) technology was used to screen for inhibitors of VEGF induced increases in intracellular calcium levels in fluorescent dye loaded endothelial cells. HUVEC (human umbilical vein endothelial cells) (Clonetics) were seeded in 96-well fibronectin coated black-walled plates overnight at 37° C./5%CO2. Cells were loaded with calcium indicator Fluo-4 for 45 minutes at 37° C. Cells were washed 4 times (Original Cell Wash, Labsystems) to remove extracellular dye. Test compounds were reconstituted in 100% DMSO and added to the cells to give a final DMSO concentration of 0.1%. For screening, cells were pre-incubated with test agents for 30 minutes, at a single concentration (10 μM) or at concentrations ranging from 0.01 to 10.0 μM followed by VEGF stimulation (5 ng/mL). Changes in fluorescence at 516 nm were measured simultaneously in all 96 wells using a cooled CCD camera. Data were generated by determining max-min fluorescence levels for unstimulated, stimulated, and drug treated samples. IC50 values for test compounds were calculated from % inhibition of VEGF stimulated responses in the absence of inhibitor.

[2] = target: T1, human VEGF receptor (VEGFR-2) (Homo sapiens, UniProt P35968); experiment: VEGFR2 Kinase Assay; assay type: biochemical; conditions: 3.6 μM ATP, poly-Glu-Tyr (4:1)
T1 construct: The cytoplasmic domain of the human VEGF receptor (VEGFR-2) was expressed; His (histidine tag); made in house; host or cells: insect cells (engineered baculovirus)
Method: The cytoplasmic domain of the human VEGF receptor (VEGFR-2) was expressed as a Hisfidine-tagged fusion protein following infection of insect cells using an engineered baculovirus. His-VEGFR-2 was purified to homogeneity, as determined by SDS-PAGE, using nickel resin chromatography. Kinase assays were performed in 96 well microtiter plates that were coated overnight with 30 μg of poly-Glu-Tyr (4:1) in 10 mM Phosphate Buffered Saline (PBS), pH 7.2-7.4. The plates were incubated with 1% BSA and then washed four times with PBS prior to starting the reaction. Reactions were carried out in 120 μL reaction volumes containing 3.6 μM ATP in kinase buffer (50 mM Hepes buffer pH 7.4, 20 mM MgCl2, 0.1 mM MnCl2 and 0.2 mM Na3VO4). Test compounds were reconstituted in 100% DMSO and added to the reaction to give a final DMSO concentration of 5%. Reactions were initiated by the addition 0.5 ng of purified protein. Following a ten minute incubation at 25° C., the reactions were washed four times with PBS containing 0.05% Tween-20. 100 μl of a monoclonal anti-phosphotyrosine antibody-peroxidase conjugate was diluted 1:10000 in PBS-Tween-20 and added to the wells for 30 minutes. Following four washes with PBS-Tween-20, 100 μl of O-phenylenediamine Dihydrochloride in Phosphate-citrate buffer, containing urea hydrogen peroxide, was added to the wells for 7 minutes as a colorimetric substrate for the peroxidase. The reaction was terminated by the addition of 100 μl of 2.5N H2SO4 to each well and read using a microplate ELISA reader set at 492 nm. IC50 values for compound inhibition were calculated directly from graphs of optical density (arbitrary units) versus compound concentration following subtraction of blank values.

[3] = test system: VEGF-induced EBD extravasation; experiment: VEGF-induced Dermal Extravasation in Guinea Pig (Miles Assay); assay type: in vivo; conditions: vehicle corn oil; for % Inhibition @ Dose (mg/Kg): 75 mg/Kg single oral dose
Method: Male Hartley guinea pigs (300-600 g) were anesthetized with isofluorane, sheared, and given a single dose of drug or the respective vehicle. The guinea pigs were dosed orally unless indicated otherwise in Table 3. Ten minutes prior to the end of drug treatment, guinea pigs were anesthetized with isofluorane, and 0.5% Evans blue dye (EBD) in PBS (13-15 mg/kg dose of EBD) was injected intravenously. After 5 minutes, triplicate intradermal injections of 100 ng rhVEGF165 in 100 μl PBS and of 100 μl PBS alone were administered on the flank. After 20 minutes, each animal was euthanized with Pentosol, and the skin containing the intradermal injection sites was removed for image analysis.
Using an analog video camera coupled to a PC, an image of each trans-illuminated skin sample was captured, and the integrated optical density of each injection site was measured using ImagePro 4. For each skin sample, the difference between the mean optical density of the VEGF sites and mean optical density of the PBS sites is the measure of VEGF-induced EBD extravasation in that animal. These measured values were averaged per study group to determine the mean VEGF-induced EBD extravasation for each experimental condition, and the group means were then compared to assess inhibition of VEGF-induced EBD extravasation in the drug-treated groups relative to the vehicle-treated controls.
(§1) To determine the dose required for 50% inhibition (ID50), the percent inhibition data was plotted as a function of oral dose, using the ‘best-fit’ analysis within MicroSoft Excel software. The ID50 value was verified visually by using the plotted data (horizontal line from 50% y value, at intersection with best-fit line drop vertical line to x axis (dose).

[4] = test system: laser-induced choroidal neovascularization; experiment: Laser-induced Choroidal Neovascularization (CNV) in Rat (CNV Assay); assay type: in vivo; conditions: vehicle corn oil
Method: CNV was induced and quantified in this model as previously described (Edelman and Castro. Exp. Eye Res. 2000; 71:523-533). On day 0, male Brown Norway rats (200-300 g) were anesthetized with 100 mg/kg Ketamine and 10 mg/kg Xylazine, and pupils were dilated with 1% Tropicamide. Using the blue-green setting of a Coherent Novus Argon Laser, 3 laser bums (90 mW for 0.1 s; 100 μm diameter) were given to each eye between the retinal vessels around the optic nerve head. Rats were dosed with test compounds in their indicated vehicles orally once daily.
On day 10, rats were sacrificed with 100% CO2, and blood vessels were labeled by vascular perfusion with 10 mg/ml FITC-dextran (MW 2×10^6). Using an epifluorescence microscope (20×) coupled to a spot digital camera and a PC, images were obtained from the flat mounts of the RPE-choroid-sclera from each eye, and the area occupied by hyperfluorescent neovessels within each laser lesion was measured using ImagePro 4 software.
as §1

physchem = assay type: physicochemical; conditions: buffer
Method: The chemical stability of Example 12 of the invention has been studied using buffers at pH 1, pH 3 and pH 7. Example 12 prepared in acetonitrile at 200 μg/mL and diluted to 20 μg/mL in buffers at pH 1, pH 3 and pH 7.

T1 sequence (P35968 786-1356 limits assumed): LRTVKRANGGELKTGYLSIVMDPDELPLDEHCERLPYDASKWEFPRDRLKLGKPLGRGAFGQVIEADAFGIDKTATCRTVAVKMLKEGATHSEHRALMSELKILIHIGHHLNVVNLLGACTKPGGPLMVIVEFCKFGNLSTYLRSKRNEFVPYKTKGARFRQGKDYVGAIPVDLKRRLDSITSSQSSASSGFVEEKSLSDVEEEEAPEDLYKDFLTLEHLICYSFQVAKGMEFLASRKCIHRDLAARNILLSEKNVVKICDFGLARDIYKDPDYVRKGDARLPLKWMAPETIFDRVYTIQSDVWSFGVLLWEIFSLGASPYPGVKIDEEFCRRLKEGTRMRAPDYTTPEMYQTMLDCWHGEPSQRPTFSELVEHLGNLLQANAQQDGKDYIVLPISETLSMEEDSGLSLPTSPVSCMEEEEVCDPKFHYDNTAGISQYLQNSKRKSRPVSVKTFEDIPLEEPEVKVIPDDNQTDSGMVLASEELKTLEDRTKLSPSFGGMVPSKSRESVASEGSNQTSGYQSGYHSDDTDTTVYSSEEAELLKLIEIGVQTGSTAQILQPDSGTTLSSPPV

| SMILES | IC50 [2] [nM] | IC50 [1] [nM] | % Inhibition @ Dose (mg/Kg) [3] [% @ 75 mg/Kg] | further results |
| --- | --- | --- | --- | --- |
| O=C1Nc2ccccc2C1=CNc1ccc(N2CCOCC2)cc1 [Example 11, 3-[(4-morpholinophenylamino)-methylene]-1,3-dihydro-indol-2-one] | 260 | 294 | 40 |  |
| O=C1C(=CNc2ccc(N3CCOCC3)cc2)c2ccccc2N1CN1CCCCC1 [Example 12, 3-[(4-Morpholin-4-yl-phenylamino)-methylene]-1-piperidin-1-ylmethyl-1,3-dihydro-indol-2-one] | 478 | 432 | 88 | % Inhibition @ Dose (mg/Kg) ([4]; 80 mg/Kg (sid) oral once daily, day 10): 94% @ 80 mg/Kg (sid); ID50 ([4]; oral once daily): 36 mg/kg; half-life at 20 μg/mL (physchem; pH 1): ~2280 min; half-life at 20 μg/mL (physchem; pH 3): ~1200 min; half-life at 20 μg/mL (physchem; pH 7.4): < 30 min; ID50 ([3]; oral): 36 mg/kg |
| O=C1C(=CNc2ccc(N3CCOCC3)cc2)c2ccccc2N1CN1CCOCC1 [Example 13, 1-Morpholin-4-ylmethyl-3-[(4-morpholin-4-yl-phenylamino)-methylene]-1,3-dihydro-indol-2-one] | 3860 | 722 | 35 |  |
| O=C1Nc2ccccc2C1=C1OCc2ccccc21 [Example 14, 3-(3H-isobenzofuran-1-ylidene)-1,3-dihydro-indol-2-one] |  | 110 |  |  |

Continued, in another order:

| IC50 [2] [nM] | SMILES | IC50 [1] [nM] | % Inhibition @ Dose (mg/Kg) [3] [% @ 75 mg/Kg] | further results |
| --- | --- | --- | --- | --- |
| 31 | CN(C)c1ccc2c(c1)COC2=C1C(=O)Nc2ccccc21 [Example 18, 3-(5-Dimethylamino-3H-isobenzofuran-1-ylidene)-1,3-dihydro-indol-2-one] | 22 |  |  |
| 133 | CN(C)c1ccc2c(c1)COC2=C1C(=O)N(CN2CCCCC2)c2ccccc21 [Example 19, 3-(5-Dimethylamino-3H-isobenzofuran-1-ylidene)-1-piperidin-1-ylmethyl-1,3-dihydro-indol-2-one] | 120 |  |  |
| 22 | CN(C)c1ccc2c(c1)COC2=C1C(=O)Nc2ccc(Cl)cc21 [Example 20, 5-Chloro-3-(5-dimethylamino-3H-isobenzofuran-1-ylidene)-1,3-dihydro-indol-2-one] | 33 |  |  |
